Measurements: patent US20240390357A1, “PYRIDINES AND THEIR USE IN TREATMENT OF GBA-RELATED DISEASES” (ZEVRA DENMARK A/S, priority 2021, published 2024)
Marks after values point to notes of the source that are not given here.

Molecular target: T1, GBA (glucosylceramidase, GCase), L444P GBA mutation (Homo sapiens, UniProt P04062, L483P)
T1 construct: Human fibroblast cell line GM10915 harboring the L444P GBA mutation was obtained from Coriell Biorepositories; host or cells: GM10915 human fibroblasts
T1 sequence (P04062 40-536 L483P): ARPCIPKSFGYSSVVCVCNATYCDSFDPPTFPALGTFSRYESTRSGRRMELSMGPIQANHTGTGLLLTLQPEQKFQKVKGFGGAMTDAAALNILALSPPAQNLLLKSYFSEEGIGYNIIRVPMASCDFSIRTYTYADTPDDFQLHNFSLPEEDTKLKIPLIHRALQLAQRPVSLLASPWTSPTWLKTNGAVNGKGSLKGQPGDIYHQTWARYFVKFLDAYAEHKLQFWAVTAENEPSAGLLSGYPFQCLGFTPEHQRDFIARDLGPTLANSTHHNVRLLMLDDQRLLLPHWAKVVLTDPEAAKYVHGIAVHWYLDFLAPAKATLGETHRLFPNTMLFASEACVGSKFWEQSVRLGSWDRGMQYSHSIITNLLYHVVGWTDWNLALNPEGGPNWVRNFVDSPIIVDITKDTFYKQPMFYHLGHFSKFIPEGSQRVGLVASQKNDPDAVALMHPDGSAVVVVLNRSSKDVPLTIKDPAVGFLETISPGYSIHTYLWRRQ
Experiment: GCase activity assay (4-MUG) in GM10915 fibroblasts, normalised to crystal violet staining
Type: cell-based
Conditions: five days exposure; for GBA EC1.5: concentration where Percent GCase activity = 150% (1.5-fold induction), human fibroblast cell line GM10915 (L444P GBA), 8-point dose range; for Emax / GBA Emax: maximum Percent GCase activity in the dose range tested, relative to basal activity of untreated cells, GM10915 (L444P GBA)
Experimental: Human fibroblast cell line GM10915 harboring the L444P GBA mutation was obtained from Coriell Biorepositories.
The GM10915 cell line was cultured under standard cell culture conditions (37° C. and 5% CO2) in complete DMEM medium supplemented with nonessential amino acids (NEAA), 1% Pen-Strep and 12% FCS. Cells were seeded at a density of 10^4 cells/well in 100 μL complete medium in one black 96-well plate for glucosylceramidase (GCase) activity measurement and in one clear 96-well plate for crystal violet staining to correct for cell density. Crystal violet staining is performed to obtain quantitative information about the relative density of cells adhering to multi-wells plates.
The assay was adapted from Sawkar et al (2002) and briefly described in the following. The day after seeding of cells, the medium was replaced with fresh medium containing the compounds to be tested. Compounds were tested in duplicate and in an 8-point diluted dose range to obtain a dose response. Cells were exposed with compounds for five days. Fresh compound was added every 2-3 days. PBS was included to define the basal level of GCase activity.
Cells were washed three times with 200 μL PBS per well and 50 μL of 2.5 mM 4-MUG buffer (4-MUG dissolved in 0.2 M acetate buffer pH 4.0) was added and the cells were incubated at 37° C., 5% CO2 for 23 hours. The reaction was stopped by adding 150 μL 0.2 M glycine buffer (pH 10.8). Fluorescence was measured with a Varioskan® Flash reader (Thermo Scientific) at an excitation/emission setting of 365/445 nm.
Cells were treated with compounds in a parallel setup identical to the setup to test for GCase activity. At the end of compound treatment, cells were washed once with 200 μL PBS per well and 50 μL 0.1% w/v crystal violet (in H20) was added. Following 10 min. of incubation, the crystal violet solution was removed, and the cells were washed three times with 200 μL PBS and 100 μL 1% SDS was added to solubilize the stain.
The plate was agitated on an orbital shaker for 10-30 min. Absorbance (A) is measured at […] using a Varioskan® Flash reader (Thermo Scientific).
The fluorescence signal (F) derived from the GCase measurement is normalized to the absorbance signal (A) derived from the crystal violet staining. The percent GCase activity resulting from compound treatment is calculated relative to the basal activity obtained from untreated cells.
Maximal effect of compounds (E max) is determined from the dose response effects as the maximum “Percent GCase activity” achieved in the dose range tested.

GBA EC1.5 | Emax | GBA Emax | Structure (SMILES)
4.9 µM | 199% | – | CN1CCCC(c2ccc(CN3CCCCC3)cn2)C1 (stereo not shown) [compound 810]
8.8 µM | 256% | – | CN1CCCC(c2cc(CN3CCCCC3)ncn2)C1 (stereo not shown) [compound 802]
6.7 µM | 255% | – | COc1ncc(C2CCN(C)C2)cc1CN1CCCCC1 (stereo not shown) [compound 812]
7.5 µM | 234% | – | c1c(C2CCNCC2)noc1CN1CCCCC1 [compound 586]
4.1 µM | 263% | – | c1cc(CN2CCCCC2)nc(C2CCNCC2)n1 [compound 638]
7.0 µM | 185% | – | Cc1cc(CN2CCCCC2)cc(C2CCN(C)CC2)n1 [compound 795]
9.2 µM | 253% | – | C1=C(c2ccc(CN3CCCCC3)cn2)CNC1 [compound 666]
46 µM | 169% | – | C1CCN(Cc2noc(C3CCCNC3)n2)CC1 (stereo not shown) [compound 614]
4.3 µM | 237% | – | Fc1cc(C2CCNCC2)cnc1CN1CCCCC1 [compound 880]
5.2 µM | 205% | – | CC(c1cncc(C2CCCNC2)c1)N1CCCCC1 (stereo not shown) [compound 761]
4.4 µM | 165% | – | c1cc(CN2CCCCC2)nc(C2CCCNC2)c1 (stereo not shown) [compound 791]
28.6 µM | 175% | – | c1cc(CN2CCCCC2)ncc1C1CCNC1 (stereo not shown) [compound 808]
6.5 µM | 204% | – | c1nc2cc(CN3CCCCC3)oc2cc1C1CCNCC1 [compound 868]
2.8 µM | 245% | – | Fc1c(CN2CCCCC2)ccnc1C1CCNCC1 [compound 846]
3.3 µM | 227% | – | Cc1cc(CN2CCCCC2)cc(C2CCNCC2)n1 [compound 764]
18.0 µM | 175% | – | c1nc(CN2CCCCC2)cc(C2CCNC2)n1 (stereo not shown) [compound 832]
4.3 µM | 200% | – | CN1CCCC(c2ccc(CN3CCCCC3)nc2)C1 (stereo not shown) [compound 776]
4.3 µM | 211% | – | Cc1cc(CN2CCCCC2)cnc1C1CCNCC1 [compound 760]
6.6 µM | 200% | – | c1cc(C2CCNCC2)ncc1CN1CCCCC1 [compound 759]
3.2 µM | 200% | – | Cc1cc(CN2CCCCC2)nc(C2CCCNC2)c1 (stereo not shown) [compound 732]

GBA EC1.5 | Emax | GBA Emax | Structure (SMILES)
7.4 µM | 152% | – | Cc1ccc(CN2CCCCC2)nc1C1CCNCC1 [compound 778]
18.5 µM | 211% | – | CC(c1cncc(C2CCNCC2)c1)N1CCCCC1 (stereo not shown) [compound 772]
30.8 µM | 176% | – | Cc1cc(C2CCNCC2)nc(CN2CCCCC2)n1 [compound 739]
6.0 µM | 203% | – | COc1ncc(C2CCNC2)cc1CN1CCCCC1 (stereo not shown) [compound 803]
19.1 µM | 190% | – | c1nc(C2CCNCC2)cnc1CN1CCCCC1 [compound 753]
3.5 µM | 236% | – | c1nc(C2CCNCC2)sc1CN1CCCCC1 [compound 620]
8.0 µM | 193% | – | c1cc2ncc(CN3CCCCC3)n2cc1C1CCNCC1 [compound 853]
4.2 µM | 214% | – | c1cc(CN2CCCCC2)ncc1C1CCCNC1 (stereo not shown) [compound 757]
16 µM | 205% | – | Cn1nc(C2CCCNC2)cc1CN1CCCCC1 (stereo not shown) [compound 708]
24.8 µM | 160% | – | COc1ncc(C2CCNCC2)cc1CN1CCCCC1 [compound 715]
3.1 µM | 233% | – | Cc1cc(CN2CCCCC2)cnc1C1CCCNC1 (stereo not shown) [compound 758]
11.8 µM | 180% | – | c1nc(C2CCCNC2)cnc1CN1CCCCC1 (stereo not shown) [compound 754]
2.7 µM | 223% | – | COc1ncc(C2CCCNC2)cc1CN1CCCCC1 (stereo not shown) [compound 729]
21.5 µM | – | 203% | Cc1cc(C2CCCNC2)nc(CN2CCCCC2)n1 (stereo not shown) [compound 737]
5.4 µM | 177% | – | c1cc(CN2CCCCC2)cc(C2CCNCC2)n1 [compound 540]
3.4 µM | 263% | – | c1cc(C2CCCNC2)ncc1CN1CCCCC1 (stereo not shown) [compound 811]
9.7 µM | 198% | – | CN1CCC(c2cnc(CN3CCCCC3)cn2)CC1 [compound 774]
9.4 µM | 194% | – | c1cn2cc(CN3CCCCC3)nc2cc1C1CCNCC1 [compound 854]
12.1 µM | 203% | – | c1cc2c(CN3CCCCC3)c[nH]c2nc1C1CCCNC1 (stereo not shown) [compound 833]
112 µM | – | – | CCCCCO[C@H]1CC[C@H](NC(=O)c2cnn3c(C)cc(C)nc23)CC1 [LTI-291, reference compound]

GBA EC1.5 | Emax | GBA Emax | Structure (SMILES)
18.9 µM | 205% | – | c1ncc(C2CCNC2)cc1CN1CCCCC1 (stereo not shown) [compound 769]
5.0 µM | – | 234% | Cc1cc(C2CCCNC2)nc(CN2CCCCC2)n1 (stereo not shown) [compound 730]
5.4 µM | 248% | – | Cc1cc(C2CCCN(C)C2)nc(CN2CCCCC2)n1 (stereo not shown) [compound 738]
43.3 µM | 163% | – | c1cc(C2CCNCC2)nnc1CN1CCCCC1 [compound 855]
2.6 µM | 267% | – | CN1CCCC(c2cccc(CN3CCCCC3)n2)C1 (stereo not shown) [compound 796]
21 µM | 189% | – | c1cn(C2CCNCC2)nc1CN1CCCCC1 [compound 624]
4.9 µM | 381% | – | c1c(C2CCNC2)noc1CN1CCCCC1 (stereo not shown) [compound 654]
2.5 µM | 250% | – | CN1CCC(c2cccc(CN3CCCCC3)n2)C1 (stereo not shown) [compound 798]
29.2 µM | 165% | – | c1cc(CN2CCCCC2)nc(C2CCNC2)c1 (stereo not shown) [compound 793]
3.0 µM | 269% | – | CN1CCC(c2cccc(CN3CCCCC3)n2)CC1 [compound 794]
2.3 µM | 212% | – | COc1ncc(C2CCN(C)CC2)cc1CN1CCCCC1 [compound 735]
3.9 µM | 173% | – | Cc1ccc(CN2CCCCC2)nc1C1CCN(C)CC1 [compound 801]
3.9 µM | 236% | – | CN1CCCC(c2cnc(CN3CCCCC3)cn2)C1 (stereo not shown) [compound 773]
3.7 µM | 216% | – | CN1CCCC(c2cncc(CN3CCCCC3)c2)C1 (stereo not shown) [compound 736]
6.5 µM | 155% | – | CN1CCC(c2cc(CN3CCCCC3)ncn2)CC1 [compound 784]
8.0 µM | 278% | – | c1cc(CN2CCCCC2)nc(C2CCNCC2)c1 [compound 788]
24.5 µM | 186% | – | c1cc(CN2CCCCC2)ncc1C1CCNCC1 [compound 775]
35.9 µM | 181% | – | c1nc2cnc(C3CCNCC3)cn2c1CN1CCCCC1 [compound 841]
6.9 µM | 200% | – | Cc1cc(CN2CCCCC2)cnc1C1CCN(C)CC1 [compound 777]

Structure (SMILES) | GBA EC1.5 | Emax | GBA Emax
Nc1c(Br)cc(Br)cc1CN[C@H]1CC[C@H](O)CC1 [Ambroxol, reference compound] | >20* *The 1.5-fold induction criteria was not reached within the tested concentration range μM | – | –
